Measurements published in PubChem BioAssay (NCI).
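Each compound was tested at five concentrations against cells in 96-well plates for 48 hours. TGI denotes the concentration required for complete inhibition of growth.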

Assays:
Assay in all cases: DTP human tumour cell line panel, 48 h
786-0 renal = system: 786-0 renal
A498 renal = system: A498 renal
A549 NSCLC = system: A549 NSCLC
ACHN renal = system: ACHN renal
BT-549 breast = system: BT-549 breast
CAKI-1 renal = system: CAKI-1 renal
CCRF-CEM leukemia = system: CCRF-CEM leukemia
COLO 205 colon = system: COLO 205 colon
DU-145 prostate = system: DU-145 prostate
EKVX NSCLC = system: EKVX NSCLC
HCC-2998 colon = system: HCC-2998 colon
HCT-116 colon = system: HCT-116 colon
HCT-15 colon = system: HCT-15 colon
HL-60(TB) leukemia = system: HL-60(TB) leukemia
HOP-62 NSCLC = system: HOP-62 NSCLC
HOP-92 NSCLC = system: HOP-92 NSCLC
HS 578T breast = system: HS 578T breast
HT29 colon = system: HT29 colon
IGROV1 ovarian = system: IGROV1 ovarian
K-562 leukemia = system: K-562 leukemia
KM12 colon = system: KM12 colon
LOX IMVI melanoma = system: LOX IMVI melanoma
M14 melanoma = system: M14 melanoma
MALME-3M melanoma = system: MALME-3M melanoma
MCF7 breast = system: MCF7 breast
MDA-MB-435 = system: MDA-MB-435
MDA-N = system: MDA-N
MOLT-4 leukemia = system: MOLT-4 leukemia
NCI-H226 lung = system: NCI-H226 lung
NCI-H23 lung = system: NCI-H23 lung
NCI-H460 lung = system: NCI-H460 lung
NCI-H522 lung = system: NCI-H522 lung
NCI/ADR-RES ovarian = system: NCI/ADR-RES ovarian
OVCAR-3 ovarian = system: OVCAR-3 ovarian
OVCAR-4 ovarian = system: OVCAR-4 ovarian
OVCAR-5 ovarian = system: OVCAR-5 ovarian
OVCAR-8 ovarian = system: OVCAR-8 ovarian
PC-3 prostate = system: PC-3 prostate
RPMI-8226 leukemia = system: RPMI-8226 leukemia
RXF 393 renal = system: RXF 393 renal
SF-268 CNS = system: SF-268 CNS
SF-295 CNS = system: SF-295 CNS
SF-539 CNS = system: SF-539 CNS
SK-MEL-2 melanoma = system: SK-MEL-2 melanoma
SK-MEL-28 melanoma = system: SK-MEL-28 melanoma
SK-MEL-5 melanoma = system: SK-MEL-5 melanoma
SK-OV-3 ovarian = system: SK-OV-3 ovarian
SN12C renal = system: SN12C renal
SNB-19 CNS = system: SNB-19 CNS
SNB-75 CNS = system: SNB-75 CNS
SR leukemia = system: SR leukemia
SW-620 colon = system: SW-620 colon
T-47D breast = system: T-47D breast
UACC-257 melanoma = system: UACC-257 melanoma
UACC-62 melanoma = system: UACC-62 melanoma
UO-31 renal = system: UO-31 renal
MDA-MB-231 breast = system: MDA-MB-231 breast
TK-10 renal = system: TK-10 renal

`Cc1ccc([N+](=O)[O-])cc1S(=O)(=O)Nc1ccc(C2=NNC(c3cccs3)C2)cc1` (centres undefined) gave a TGI (786-0 renal) of over 100 µM, a TGI (A498 renal) of 93.1 µM and a TGI (A549 NSCLC) of over 100 µM. For the same molecule, the TGI (ACHN renal) was 82.9 µM, the TGI (BT-549 breast) was 83.8 µM and the TGI (CAKI-1 renal) was over 100 µM. It also gave a TGI (CCRF-CEM leukemia) of over 100 µM, a TGI (COLO 205 colon) of 35.6 µM and a TGI (DU-145 prostate) of over 100 µM. The TGI (EKVX NSCLC) was 64.2 µM, the TGI (HCC-2998 colon) was over 100 µM and the TGI (HCT-116 colon) was 63.5 µM. It also gave a TGI (HCT-15 colon) of over 100 µM, a TGI (HL-60(TB) leukemia) of 50.9 µM and a TGI (HOP-62 NSCLC) of 60.2 µM. For the same molecule, the TGI (HOP-92 NSCLC) was over 100 µM, the TGI (HS 578T breast) was over 100 µM and the TGI (HT29 colon) was over 100 µM. The TGI (IGROV1 ovarian) was over 100 µM, the TGI (K-562 leukemia) was over 100 µM and the TGI (KM12 colon) was 76.1 µM. The TGI (LOX IMVI melanoma) was over 100 µM, the TGI (M14 melanoma) was 68.8 µM and the TGI (MALME-3M melanoma) was over 100 µM. The TGI (MCF7 breast) was 47.8 µM, the TGI (MDA-MB-435) was over 100 µM and the TGI (MDA-N) was over 100 µM. The TGI (MOLT-4 leukemia) was 92.9 µM, the TGI (NCI-H226 lung) was over 100 µM and the TGI (NCI-H23 lung) was over 100 µM. For the same molecule, the TGI (NCI-H460 lung) was over 100 µM, the TGI (NCI-H522 lung) was over 100 µM and the TGI (NCI/ADR-RES ovarian) was 94.6 µM. It also gave a TGI (OVCAR-3 ovarian) of 43.2 µM, a TGI (OVCAR-4 ovarian) of over 100 µM and a TGI (OVCAR-5 ovarian) of over 100 µM. For the same molecule, the TGI (OVCAR-8 ovarian) was over 100 µM, the TGI (PC-3 prostate) was over 100 µM and the TGI (RPMI-8226 leukemia) was over 100 µM. For the same molecule, the TGI (RXF 393 renal) was 38.7 µM, the TGI (SF-268 CNS) was over 100 µM and the TGI (SF-295 CNS) was 63.9 µM. The TGI (SF-539 CNS) was over 100 µM, the TGI (SK-MEL-2 melanoma) was over 100 µM and the TGI (SK-MEL-28 melanoma) was over 100 µM. For the same molecule, the TGI (SK-MEL-5 melanoma) was 46.3 µM, the TGI (SK-OV-3 ovarian) was 89.4 µM and the TGI (SN12C renal) was 90.6 µM. It also gave a TGI (SNB-19 CNS) of over 100 µM, a TGI (SNB-75 CNS) of over 100 µM and a TGI (SR leukemia) of 78.8 µM. It also gave a TGI (SW-620 colon) of over 100 µM, a TGI (T-47D breast) of 43.4 µM and a TGI (UACC-257 melanoma) of over 100 µM. The TGI (UACC-62 melanoma) was 34.1 µM and the TGI (UO-31 renal) was over 100 µM.

`CC(=N/NC(=S)N1CCCCC1)/C(C)=N\NC(=S)N1CCCCC1` gave a TGI (786-0 renal) of 3.1 µM, a TGI (A498 renal) of 2.86 µM and a TGI (A549 NSCLC) of 4.04 µM. For the same molecule, the TGI (ACHN renal) was 2.92 µM, the TGI (BT-549 breast) was 3.38 µM and the TGI (CAKI-1 renal) was 3.23 µM. For the same molecule, the TGI (COLO 205 colon) was 3.62 µM, the TGI (DU-145 prostate) was 3.05 µM and the TGI (EKVX NSCLC) was 3.11 µM. It also gave a TGI (HCC-2998 colon) of 3.48 µM, a TGI (HCT-15 colon) of 5.31 µM and a TGI (HOP-62 NSCLC) of 3.51 µM. It also gave a TGI (HOP-92 NSCLC) of 2.85 µM, a TGI (HS 578T breast) of 5.76 µM and a TGI (HT29 colon) of 4.07 µM. The TGI (IGROV1 ovarian) was 3.13 µM, the TGI (K-562 leukemia) was 6.89 µM and the TGI (LOX IMVI melanoma) was over 100 µM. It also gave a TGI (M14 melanoma) of 4.57 µM, a TGI (MALME-3M melanoma) of 3.61 µM and a TGI (MDA-MB-231 breast) of 5.63 µM. The TGI (MDA-MB-435) was 3.79 µM, the TGI (MDA-N) was 6.44 µM and the TGI (MOLT-4 leukemia) was over 100 µM. For the same molecule, the TGI (NCI-H226 lung) was 3 µM, the TGI (NCI-H23 lung) was 4.82 µM and the TGI (NCI-H460 lung) was 3.6 µM. The TGI (NCI-H522 lung) was 4.74 µM, the TGI (NCI/ADR-RES ovarian) was 5.22 µM and the TGI (OVCAR-3 ovarian) was 3.39 µM. The TGI (OVCAR-4 ovarian) was 3.46 µM, the TGI (OVCAR-5 ovarian) was 3.82 µM and the TGI (RPMI-8226 leukemia) was 5.13 µM. For the same molecule, the TGI (RXF 393 renal) was 3.2 µM, the TGI (SF-268 CNS) was 3.45 µM and the TGI (SF-295 CNS) was 3.74 µM. It also gave a TGI (SF-539 CNS) of 5.58 µM, a TGI (SK-MEL-2 melanoma) of 4.65 µM and a TGI (SK-MEL-28 melanoma) of 3.99 µM. The TGI (SK-MEL-5 melanoma) was 3.07 µM, the TGI (SK-OV-3 ovarian) was 3.32 µM and the TGI (SN12C renal) was 3.2 µM. The TGI (SNB-19 CNS) was 3.54 µM, the TGI (SNB-75 CNS) was 3.14 µM and the TGI (T-47D breast) was 3.27 µM. For the same molecule, the TGI (TK-10 renal) was 3.24 µM, the TGI (UACC-257 melanoma) was 4.09 µM and the TGI (UO-31 renal) was 2.79 µM.
